{"source": "patent US20090326064A1", "about": "“Pesticidal composition” (priority 2006, published 2009)", "format_in_all_cases": "physicochemical", "key": {"[1]": {"assay": "Stability under solar light"}, "Vapor pressure": {"assay": "Vapor pressure", "conditions": "at 25° C."}, "[2]": {"assay": "Stability in general-use solvents", "conditions": "such as acidic or alkaline aqueous solutions"}}}
{"smiles": "CC=CC1C(C(=O)OCc2c(F)c(F)c(COC)c(F)c2F)C1(C)C", "note": "(stereo not drawn) [Compound A, 2,3,5,6-tetrafluoro-4-methoxymethylbenzyl 1R-trans-3-(1-propenyl(E/Z=1/8))-2,2-dimethylcyclopropanecarboxylate]", "values": [{"measurement": "stability under solar light", "setting": "[1]", "value": "very stable"}, {"measurement": "vapor pressure", "setting": "Vapor pressure", "value": "1.96×10^−3 Pa"}, {"measurement": "stability in various general-use solvents", "setting": "[2]", "value": "stable"}]}
